# Experimental data: patent publication US20090012152A1, “Use of Tetramic Acid Derivatives for Controlling Insects from the Genus of the Plane Lice (Sternorrhyncha)” (Bayer CropScience Aktiengesellschaft, priority 2005, published 2009)
# Columns and labels:
# Format in all cases: in vivo
# Pulvinaria aurantii = assay: Example 11: satsuma trees treated against Pulvinaria aurantii; conditions: 41 days after treatment; live animals counted, Henderson and Tilton; satsuma tree; % a.i.: buprofezin 0.025, I-4 0.0144
# Description: In three replications, in each case one about 4-year-old satsuma tree of the cultivar “Nankan 20” is treated against Pulvinaria aurantii. Here, the active compound Example (I-4) (240 SC) in a tank mix with 0.2% of rapeseed oil methyl ester (500 EW) at the stated application rate is tested against the commercial standard buprofezin at the stated application rate. The application is carried out using a motor-operated knapsack sprayer. Here, each plant is treated with 400 ml of spray liquor.
# (§1) Evaluation is carried out before and 41 days after the treatment by counting the live animals. The efficacy in percent is then calculated according to Henderson and Tilton.
# Ceroplastes rubens = assay: Example 12: satsuma trees treated against Ceroplastes rubens; conditions: 41 days after treatment; live animals counted, Henderson and Tilton; satsuma tree; % a.i.: buprofezin 0.025, I-4 0.0072
# Description: In three replications, in each case one about 4-year-old satsuma tree of the cultivar “Nankan 20” is treated against Ceroplastes rubens. Here, the active compound Example (I-4) (240 SC) in a tank mix with 0.1% of rapeseed oil methyl ester (500 EW) at the stated application rate is tested against the commercial standard buprofezin (25 WP) at the stated application rate. The application is carried out using a motor-operated knapsack sprayer. Here, treatment is carried out using an application rate of 400 l of water/ha.
# as §1
# Saissetia oleae [1] = assay: Example 13: orange trees treated against Saissetia oleae; conditions: nymphs on leaves, g a.i./ha/m crown height: buprofezin 500, I-4 72, I-8 30
# Description: In three replications, in each case two about 8-year-old orange trees are treated against Saissetia oleae. Here, the active compounds Example (I-4) (240 SC) and Example (I-8) (250 SC) in a tank mix with 0.2% a.i. of rapeseed oil methyl ester (500 EW) at the stated application rate are tested against the commercial standard buprofezin in a tank mix with 0.4% a.i. of Oliocin (800 EW) at the stated application rate. The application is carried out using a motor-operated knapsack sprayer. The application rate is 3000 l of water/ha. Two treatments are carried out, at an interval of 29 days.
# Evaluation is carried out 24 and 44 days after the last treatment by rating the kill of the nymphs on the leaves.
# Myzus persicae = assay: Example 50: tomatoes treated against Myzus persicae; conditions: nymphs on leaves, g a.i./ha: acetamiprid 50, I-9 36, I-4 48
# Description: In two replications, plots of a size of about 43 m^2 with tomatoes of the cultivar “Yaqui” are treated against Myzus persicae. The application is carried out using a motor-operated knapsack sprayer. Here, the active compounds Example (I-9) (240 SC) and Example (I-4) (240 SC), in a tank mix with 0.1% a.i. of rapeseed oil methyl ester (500 EW), and the standard acetamiprid (20 WP) are applied at the stated application rates. The application rate is 208 l of water/ha.
# Evaluation is carried out 3 and 10 days after the treatment by rating the kill of the nymphs on the leaves.
# [2] = tested on: Selenaspidius articulatus; assay: Example 19: orange trees treated against Selenaspidius articulatus; conditions: 100 d after treatment, on leaves, % a.i.: methidathion 0.05, I-9 0.0288, I-4 0.0144
# Description: In three replications, 3-year-old orange trees of the cultivar “Pera natal” are treated against Selenaspidius articulatus. The application is carried out using a motor-operated knapsack sprayer. Here, the active compounds Example (I-9) (240 SC) and Example (I-4) (240 SC) at the stated application rate are tested against the standard methidathion (400 EC) in the stated amounts, applied once. The application rate is 3.3 l of water per tree.
# Evaluation is carried out 100 days after the treatment by rating the kill on the leaves.
# Orthezia praelonga = assay: Example 25: orange trees treated against Orthezia praelonga; conditions: population on leaves, % a.i.: methidathion 0.05, I-4 0.0144, I-9 0.0144
# Description: In two replications, two about 7-year-old orange trees of the cultivar “Pera Rio” are treated against Orthezia praelonga. Here, the active compounds Example (I-4) (240 SC) and Example (I-9) (240 SC), in a tank mix with 0.1% a.i. of Renex, are tested against the commercial standard Methidathion (400 EC), at the stated application rates. The application is carried out using a knapsack sprayer operated with pressurized air. Evaluation is carried out 6 and 16 days after the treatment by rating the kill of the population on the leaves.
# Bemisia tabaci = assay: Example 32: bell peppers treated against Bemisia tabaci; conditions: larvae on leaves, % a.i.: imidacloprid 0.02, I-9, I-2, I-11 0.0144
# Description: In three replications, plots of a size of 10 m^2 with bell peppers of the cultivar “Italiano” are treated against Bemisia tabaci. The application is carried out using a motor-operated knapsack sprayer. Here, the active compounds Example (I-9) (240 SC), Example (I-2) (60 SC) and Example (I-11) (60 SC) and the commercial standard imidacloprid (200 SL) are applied at the stated application rates. Three applications at an interval of 14 or 15 days are carried out, at an application rate of 1000 or 1100 l of water/ha.
# Evaluation is carried out 7, 14 and 22 days after the second treatment by rating the kill of the animals (larvae) on the leaves.
# Bemisia argentifolii = assay: Example 35: aubergines (F 100) treated against Bemisia argentifolii; conditions: 7 d after last of three treatments, nymphs on leaves, % a.i.: imidacloprid 0.014, I-9, I-2, I-11 0.0144
# Description: In three replications, plots of a size of 10 m^2 with aubergines of the cultivar “F 100” are treated against Bemisia argentifolii. The application is carried out using a knapsack sprayer operated with pressurized air. Here, the active compounds Example (I-9) (60 SC), Example (I-2) (60 SC) and Example (I-11) (60 SC) and the commercial standard imidacloprid (70 WG) are tested at the stated application rates. Three applications are carried out, at an interval or 7 or 8 days. The application rate is 1000 l of water/ha.
# Evaluation is carried out 7 days after the last treatment by rating the kill of the nymphs on the leaves.
# Macrosiphum euphorbiae = assay: Example 43: aubergines treated against Macrosiphum euphorbiae; conditions: nymphs on leaves, % a.i.: imidacloprid 0.014, I-9, I-2, I-11 0.0144
# Description: In three replications, plots of a size of 10 m^2 with aubergines of the cultivar “F 100” are treated against Macrosiphum euphorbiae. The application is carried out using a knapsack sprayer operated with pressurized air. Here, the active compounds Example (I-9) (60 SC), Example (I-2) (60 SC) and Example (I-11) (60 SC) and the commercial standard imidacloprid (70 WG) are tested at the stated application rates. Three applications are carried out, at an interval of 7 or 8 days. The application rate is 1000 l of water/ha.
# Evaluation is carried out 7 and 14 days after the second treatment by rating the kill of the nymphs on the leaves.
# Saissetia oleae [3] = assay: Example 14: orange trees (Navelina) treated against Saissetia oleae; conditions: 120 d after treatment, kill on branches, % a.i.: Dursban 0.096, I-4 0.012, I-9 0.0054, pyriproxyfen 0.005
# Description: In three replications, orange trees of the cultivar “Navelina” are treated against Saissetia oleae. Here, the active compounds Example (I-4) (240 SC) and Example (I-9) (240 SC) in a tank mix with 0.1% of rapeseed oil methyl ester (500 EW) at the stated application rate are tested against the commercial standards Dursban (480 EC) and pyriproxyfen (100 EC) at the stated application rate. The application is carried out using a motor-operated knapsack sprayer. The application rate is 3200 l of water/ha.
# Evaluation is carried out 120 days after the treatment by rating the kill of the animals on the branches.
# Lepidosaphes beckii = assay: Example 18: citrus trees treated against Lepidosaphes beckii; conditions: 140 days after treatment, larvae on fruits, g a.i./ha/m crown height: pyriproxyfen 50, I-4 48
# Description: In three replications, in plots of a size of about 20 m^2, citrus trees of the cultivar “Oro Nules” are treated against Lepidosaphes beckii. The application is carried out using a high-pressure sprayer. Here, the active compound Example (I-4) (240 SC) in a tank mix with 0.1% a.i. of rapeseed oil methyl ester (500 EW) is tested against the commercial standard pyriproxyfen (100 EC), at the stated application rates. The application rate is 2500 l of water/ha.
# Evaluation is carried out 140 days after the treatment by rating the kill of the larvae on the fruits.
# Parlatoria pergandei = assay: Example 27 / 18a: orange trees treated against Parlatoria pergandei; conditions: 73 d after last of two treatments, on fruits, % a.i.: pyriproxyfen 0.005, I-9 0.0096
# Description: The evaluation for Example 18a against Parlatoria pergandei is carried out as part of the test as described in Example 27 and is listed separately in Example 27.
# (§2) In three replications, orange trees of the cultivar “Navelina” are treated against Parlatoria pergandei and Pseudococcus citri. Two applications are carried out at an interval of 77 days using a motor-operated knapsack sprayer. Here, the active compound Example (I-9) (240 SC), in a tank mix with 0.1% a.i. of rapeseed oil methyl ester (500 EW), at the stated amount, is tested against the commercial standard pyriproxyfen (100 EC), at the stated amounts. The application rate is 3000 l of water/ha.
# (§3) Evaluation is carried out 56 days or 73 days after the last treatment by rating the kill in percent on the fruits.
# Pseudococcus citri = assay: Example 27: orange trees treated against Pseudococcus citri; conditions: 56 d after last of two treatments, on fruits, % a.i.: pyriproxyfen 0.005, I-9 0.0096
# Description: as §2, §3
smiles,measurement,setting,value
"CC(C)N1C(=O)N(c2ccccc2)CS/C1=N\C(C)(C)C [buprofezin, reference compound]",Effect (%),Pulvinaria aurantii,68%
same,Effect (%),Ceroplastes rubens,50%
same,Kill (%) 24 d,Saissetia oleae [1]; 24 d after last of two treatments,33.5%
same,Kill (%) 44 d,Saissetia oleae [1]; 44 d after last of two treatments,50.5%
"C/C(=N\C#N)N(C)Cc1ccc(Cl)nc1 [acetamiprid, reference compound]",Kill (%) 3 d,Myzus persicae; 3 d after treatment,78.7%
same,Kill (%) 10 d,Myzus persicae; 10 d after treatment,73.5%
"COc1nn(CSP(=S)(OC)OC)c(=O)s1 [methidathion, reference compound]",Kill (%) 100 d,[2],77%
same,Kill (%) 6 d,Orthezia praelonga; 6 d after treatment,91%
same,Kill (%) 16 d,Orthezia praelonga; 16 d after treatment,61%
CCCC(=O)OC1=C(c2cc(C)c(C)cc2C)C(=O)NC12CCC(OCC)CC2 (stereo not shown) [Example (I-11)],Kill (%) 7 d,Bemisia tabaci; 7 d after second treatment,85.4%
same,Kill (%) 14 d,Bemisia tabaci; 14 d after second treatment,93.3%
same,Kill (%) 22 d,Bemisia tabaci; 22 d after second treatment,91.3%
same,Kill (%) 7 d,Bemisia argentifolii,94%
same,Kill (%) 7 d,Macrosiphum euphorbiae; 7 d after second treatment,98%
same,Kill (%) 14 d,Macrosiphum euphorbiae; 14 d after second treatment,99%
"CC(COc1ccc(Oc2ccccc2)cc1)Oc1ccccn1 (stereo not shown) [pyriproxyfen, reference compound]",Effect (%) 120 d,Saissetia oleae [3],100%
same,Kill (%) 140 days,Lepidosaphes beckii,100%
same,Kill (%) 73 d,Parlatoria pergandei,97.5%
same,Kill (%) 56 d,Pseudococcus citri,28.8%
